From patent US20170246311A1, “PEPTIDES FOR BINDING ALTERNATIVELY ACTIVATED MACROPHAGES” (University of Washington, priority 2016, published 2017)
Entries after “also recorded” stand apart in the source; their conditions may differ. Positions of bridges follow the written chain, without caps; N, C: chain ends. Non-standard residues stand in square brackets, D forms with d. Residues, ends and D or L forms follow the SMILES beside them. *: point of attachment. Biotin = O=C1N[C@H]2[C@H](CS[C@H]2CCCCC(=O)*)N1; Hyp = O=C(O)[C@@H]1C[C@@H](O)CN1

Experiments:
M2 macrophages = test: Binding study of biotinylated peptides on polarized bone marrow-derived macrophages (streptavidin-FITC, flow cytometry); assay type: cell-based, mouse; conditions: for binding activity to M2 macrophages (in words): biotinylated peptide, on ice 20 min
Experimental: All animal handling protocols were approved by the University of Washington Institutional Animal Care and Use Committee. Bone marrow harvest was performed following the previously reported protocol. Briefly, femur and tibia were excised from 6-8 week-old female c57bl6/027 mice. Cuts were made on the ends of each bone, and RPMI 1640 medium was used to flush out bone marrow cells via 18G needle. The cells were cultured on petri dishes in RPMI 1640 medium supplemented with 20% donor horse serum, 1% antibiotic-antimycotic (AbAm), and 20 ng/mL M-CSF. After 7 d of culture, macrophages were activated by replacing M-CSF with 25 ng/mL IFN-γ and 100 ng/mL LPS for M1 macrophage or 25 ng/mL IL-4 for M2 macrophage. The macrophages were activated for 2 d and then scraped off the petri dishes with cell lifter for binding studies.
Peptide solutions at different concentrations for binding study were prepared by dilutions from the stock solution (10 mg/mL in dH2O) with PBS containing 1% BSA (PBSA). M1 and M2 macrophages (50,000 cells/well) were seeded on a black 96-well plate and incubated in the peptide solutions on ice for 20 min. Unbound peptides were washed off with PBSA twice. The macrophages were subsequently incubated with streptavidin-FITC for 15 min on ice to probe for the bound peptides. Excess streptavidin-FITC was washed off with PBSA twice, and the macrophages were then resuspended in PBS for analysis by MACSQuant Flow Cytometer (Miltenyi Biotec, San Diego, Calif.). Propidium iodide was added to the samples before the data acquisition to discriminate dead cells. Flow cytometry data were analyzed with FlowJo Analysis Software (Tree Star, Ashland, Oreg.). Binding study of peptides post serum incubation was similarly performed with the following additions: The peptides (5 mM stock solution in H2O) were diluted in serum to a final concentration of 0.5 mM and incubated at 37° C. in an incubator. At each time point, an aliquot of the peptides was drawn and diluted in PBS to the final concentration for the binding study. The diluted aliquot was heated at 80° C. for 30 min to inactivate serum proteins, stored in a −20° C. freezer, and thawed for use in the binding study after aliquots at all time points were collected.
All animal handling protocols were approved by the University of Washington Institutional Animal Care and Use Committee. Bone marrow-derived cells were harvested from female c57bl/6 mice as previously described. In brief, femurs and tibias of the mice were excised and flushed with RPMI 1640 medium via an 18G needle. The cells were cultured on petri dishes containing RPMI 1640 medium supplemented with 20% donor horse serum, 1% antibioticantimycotic (AbAm), and 20 ng/mL M-CSF. After 7 d in culture, the medium was replaced with an activation medium whereby M-CSF was replaced with 25 ng/mL IFN-γ and 100 ng/mL LPS for M1 activation or with 25 ng/mL IL-4 for M2 activation. For M1 activation medium, AbAm was replaced with 1% penicillin-streptomycin (Pen-Strep). After 2 d of activation, the activated macrophages were scraped off the petri dishes for binding studies.
Biotinylated peptide stock solutions were prepared in H2O at 10 mg/mL concentration and quantified for the exact concentration using Quant*Tag Biotin quantification kit. The stock solutions were diluted in PBS with 1% BSA (PBSA) to different concentrations for binding studies. Activated macrophages were seeded on a black 96-well plate (50,000 cells/well) and incubated with the peptide solutions for 20 min on ice. The cells were washed twice with PBSA and subsequently incubated with streptavidin-FITC for 15 min on ice. After two additional washes, the cells were resuspended in PBS for analysis via MACSQuant Flow Cytometer (Miltenyi Biotec, San Diego, Calif.). Propidium iodide (PI) was added before running each sample to assess for cell viability. Data analysis was processed on FlowJo Analysis Software (Tree Star, Ashland, Oreg.). […]

[1] = Serum stability study in normal mouse serum, analysis by MALDI-TOF MS; conditions: mouse serum
Experimental: The peptide of interest (30 μL of 10 mg/mL stock solution in dH2O) was added to normal mouse serum (300 μL) and incubated at 37° C. in an incubator. At each time point, an aliquot of 40 μL was drawn and an equal volume of ACN was added to the aliquot to precipitate serum proteins. The cloudy mixture was centrifuged at 10,000 rpm for 5 min and then supernatant removed. A solution of 1:1 H2O/ACN (80 μL) was added to the pellet and sonicated for 10 min to further extract the remaining peptides. This resuspended mixture was then centrifuged, and the supernatant was pooled with the former and vacuum-dried on a Speedvac machine. The dried pellet was solubilized in H2O (50 μL) by sonication for 10 min. The mixture was then centrifuged, and the supernatant was drawn and analyzed by MALDI-TOF MS.
To evaluate serum stability of M2pep, the peptide was incubated in mouse serum, and aliquots of the serum at various time points were withdrawn for analysis of degradation patterns by MALDI-TOF MS.
Different M2pep analogs (30 μL from 10 mg/mL stock solution in H2O) were incubated in normal mouse serum (300 μL) at 37° C. in an incubator. An aliquot of the serum (40 μL) was drawn at different time intervals and precipitated with an equal volume of cold ACN. The mixture was centrifuged at 15,000 rpm for 5 min, and the supernatant was collected. A solution of H2O/ACN (1:1 v/v, 80 μL) was added to the pellet with a 10-min sonication to further extract residual peptides. The mixture was then centrifuged. The supernatant was pooled with the former and dried under vacuum on a Speedvac machine. The peptide pellet was resuspended in H2O (50 μL) with a 10-min sonication before analysis by MALDI-ToF MS.

Row | Compound | binding activity to M2 macrophages (in words) (M2 macrophages) | also measured
1 | CC(=O)N[C@@H](Cc1ccc(O)cc1)C(=O)N[C@@H](CCC(=O)O)C(=O)N[C@@H](CCC(N)=O)C(=O)N[C@@H](CC(=O)O)C(=O)N1CCC[C@H]1C(=O)N[C@@H](Cc1c[nH]c2ccccc12)C(=O)NCC(=O)N[C@H](C(=O)N[C@@H](CCCNC(=N)N)C(=O)N[C@@H](Cc1ccc(O)cc1)C(=O)N[C@@H](Cc1c[nH]c2ccccc12)C(=O)N[C@@H](Cc1ccc(O)cc1)C(=O)NCC(=O)NCC(=O)NCC(=O)N[C@@H](CO)C(=O)N[C@H](CCCCN)C(=O)N[C@H](CCCCN)C(=O)N[C@H](CCCCN)C(=O)N[C@@H](CCCCNC(=O)CCCC[C@@H]1SC[C@@H]2NC(=O)N[C@@H]21)C(N)=O)C(C)C [AcM2pep(RY)Biotin, Ac-YEQDPWGVRYWYGGGSkkk] (Ac-YEQDPWGVRYWYGGGS[dK][dK][dK]K(Biotin)-NH2) | did not improve the binding activity any further compared to the K9R analog; also recorded: highest affinity linear M2pep analog | serum stability at the W10/W11 endolytic cleavage site [1]: did not improve serum stability at the W10/W11 site
2 | CC(=O)N[C@@H](Cc1ccc(O)cc1)C(=O)N[C@@H](CCC(=O)O)C(=O)N[C@@H](CCC(N)=O)C(=O)N[C@@H](CC(=O)O)C(=O)N1CCC[C@H]1C(=O)N[C@@H](Cc1c[nH]c2ccccc12)C(=O)NCC(=O)N[C@H](C(=O)N[C@@H](CCCCN)C(=O)N[C@@H](Cc1c[nH]c2ccccc12)C(=O)N[C@@H](Cc1c[nH]c2ccccc12)C(=O)N[C@@H](Cc1ccc(O)cc1)C(=O)NCC(=O)NCC(=O)NCC(=O)N[C@@H](CO)C(=O)N[C@@H](CCCCN)C(=O)N[C@@H](CCCCN)C(=O)N[C@@H](CCCCN)C(=O)N[C@@H](CCCCNC(=O)CCCC[C@@H]1SC[C@@H]2NC(=O)N[C@@H]21)C(N)=O)C(C)C [AcM2pepBiotin, Ac-YEQDPWGVKWWYGGGSKKK] | slight, but not statistically significant, reduction in binding activity | binding selectivity to M2 macrophages over M1 macrophages (M2 macrophages; M2 versus M1 macrophages): retained binding selectivity to M2 macrophages over M1 macrophages; N-terminal (exolytic) degradation in serum [1]: resistant to N-terminal degradation; overall serum stability (in words) ([1]; 37° C., MALDI-TOF MS): did not improve the overall serum stability
3 | Fc1c(F)c(F)c(-c2c(F)c(F)c(F)c(F)c2F)c(F)c1F [DFBP, decafluorobiphenyl, reference compound] | negligible binding to M2 macrophages | –
4 | CC(=O)N[C@@H](Cc1ccc(O)cc1)C(=O)N[C@@H](CCC(=O)O)C(=O)N[C@@H](CCC(N)=O)C(=O)N[C@@H](CC(=O)O)C(=O)N1CCC[C@H]1C(=O)N[C@@H](Cc1c[nH]c2ccccc12)C(=O)NCC(=O)N[C@H](C(=O)N[C@@H](CCCNC(=N)N)C(=O)N[C@@H](Cc1c[nH]c2ccccc12)C(=O)N[C@@H](Cc1c[nH]c2ccccc12)C(=O)N[C@@H](Cc1ccc(O)cc1)C(=O)NCC(=O)NCC(=O)NCC(=O)N[C@@H](CO)C(=O)N[C@@H](CCCCN)C(=O)N[C@@H](CCCCN)C(=O)N[C@@H](CCCCN)C(=O)N[C@@H](CCCCNC(=O)CCCC[C@@H]1SC[C@@H]2NC(=O)N[C@@H]21)C(N)=O)C(C)C [K9R, Ac-YEQDPWGVRWWYGGGSKKK] | significantly increased binding activity | serum stability at the W10/W11 endolytic cleavage site [1]: did not confer protection at the W10/W11 site
5 | CC(=O)N[C@@H](Cc1ccc(O)cc1)C(=O)N[C@@H](CCC(=O)O)C(=O)N[C@@H](CCC(N)=O)C(=O)N[C@@H](CC(=O)O)C(=O)N1C[C@H](O)C[C@H]1C(=O)N[C@@H](Cc1c[nH]c2ccccc12)C(=O)NCC(=O)N[C@H](C(=O)N[C@@H](CCCNC(=N)N)C(=O)N[C@@H](Cc1ccc(O)cc1)C(=O)N[C@@H](Cc1c[nH]c2ccccc12)C(=O)N[C@H](Cc1ccc(O)cc1)C(=O)NCC(=O)NCC(=O)NCC(=O)N[C@@H](CO)C(=O)N[C@H](CCCCN)C(=O)N[C@H](CCCCN)C(=O)N[C@H](CCCCN)C(=O)N[C@@H](CCCCNC(=O)CCCC[C@@H]1SC[C@@H]2NC(=O)N[C@@H]21)C(N)=O)C(C)C [P5Hyp, Ac-YEQD(Hyp)WGVRYWyGGGSkkk] (Ac-YEQD[Hyp]WGVRYW[dY]GGGS[dK][dK][dK]K(Biotin)-NH2) | significantly ablated the binding activity | –
6 | CC(=O)N[C@@H](CCCNC(=N)N)C(=O)N[C@@H](Cc1ccc(O)cc1)C(=O)N[C@@H](CCC(=O)O)C(=O)N[C@@H](CCC(N)=O)C(=O)N[C@@H](CC(=O)O)C(=O)N1CCC[C@H]1C(=O)N[C@@H](Cc1c[nH]c2ccccc12)C(=O)NCC(=O)N[C@H](C(=O)N[C@@H](CCCNC(=N)N)C(=O)N[C@@H](Cc1ccc(O)cc1)C(=O)N[C@@H](Cc1c[nH]c2ccccc12)C(=O)N[C@H](Cc1ccc(O)cc1)C(=O)NCC(=O)NCC(=O)NCC(=O)N[C@@H](CO)C(=O)N[C@H](CCCCN)C(=O)N[C@H](CCCCN)C(=O)N[C@H](CCCCN)C(=O)N[C@@H](CCCCNC(=O)CCCC[C@@H]1SC[C@@H]2NC(=O)N[C@@H]21)C(N)=O)C(C)C [R0, Ac-RYEQDPWGVRYWyGGGSkkk] (Ac-RYEQDPWGVRYW[dY]GGGS[dK][dK][dK]K(Biotin)-NH2) | did not improve binding activity any further | –
7 | Cc1cn(C)nn1 [Triazole-cyclized M2pep(RY)Biotin] | bind less strongly | –
8 | CC(=O)N[C@@H](Cc1ccc(O)cc1)C(=O)N[C@@H](CCC(=O)O)C(=O)N[C@@H](CCC(N)=O)C(=O)N[C@@H](CC(=O)O)C(=O)N1CCC[C@H]1C(=O)N[C@@H](Cc1c[nH]c2ccccc12)C(=O)NCC(=O)N[C@H](C(=O)N[C@@H](CCCCN)C(=O)N[C@H](Cc1c[nH]c2ccccc12)C(=O)N[C@H](Cc1c[nH]c2ccccc12)C(=O)N[C@@H](Cc1ccc(O)cc1)C(=O)NCC(=O)NCC(=O)NCC(=O)N[C@@H](CO)C(=O)N[C@@H](CCCCN)C(=O)N[C@@H](CCCCN)C(=O)N[C@@H](CCCCN)C(=O)N[C@@H](CCCCNC(=O)CCCC[C@@H]1SC[C@@H]2NC(=O)N[C@@H]21)C(N)=O)C(C)C [W(10,11)w, Ac-YEQDPWGVKwwYGGGSKKK] | did not restore the binding activity | –
9 | CC(C)[C@@H]1NC(=O)CNC(=O)[C@H](Cc2c[nH]c3ccccc23)NC(=O)[C@@H]2CCCN2C(=O)[C@H](CC(=O)O)NC(=O)CNC(=O)[C@@H](N)CSSC[C@@H](C(=O)N[C@H](CCCCN)C(=O)N[C@H](CCCCN)C(=O)N[C@H](CCCCN)C(=O)N[C@@H](CCCCNC(=O)CCCC[C@@H]2SC[C@@H]3NC(=O)N[C@@H]32)C(N)=O)NC(=O)CNC(=O)[C@H](Cc2c[nH]c3ccccc23)NC(=O)[C@H](Cc2ccc(O)cc2)NC(=O)[C@H](CCCNC(=N)N)NC1=O [cRYW, CGDPWGVRYWGCkkk] (H-CGDPWGVRYWGC[dK][dK][dK]K(Biotin)-NH2; disulfide 1-12) | significantly lower binding activity compared to cyclic M2pep(RY)Biotin | –
10 | CC(C)[C@@H]1NC(=O)CNC(=O)[C@H](Cc2c[nH]c3ccccc23)NC(=O)[C@@H]2CCCN2C(=O)[C@H](CC(=O)O)NC(=O)CNC(=O)[C@@H](N)CSSC[C@@H](C(=O)N[C@H](CCCCN)C(=O)N[C@H](CCCCN)C(=O)N[C@H](CCCCN)C(=O)N[C@@H](CCCCNC(=O)CCCC[C@@H]2SC[C@@H]3NC(=O)N[C@@H]32)C(N)=O)NC(=O)CNC(=O)[C@H](Cc2ccc(O)cc2)NC(=O)[C@H](Cc2c[nH]c3ccccc23)NC(=O)[C@H](Cc2ccc(O)cc2)NC(=O)[C@H](CCCNC(=N)N)NC1=O [cRYWY, CGDPWGVRYWYGCkkk] (H-CGDPWGVRYWYGC[dK][dK][dK]K(Biotin)-NH2; disulfide 1-13) | significantly lower binding activity compared to cyclic M2pep(RY)Biotin | –
11 | Biotin-Ahx-GRGRGRG(C-DFBP)G [reference compound] | binds very weakly to macrophages even at 100 μM | –
